Data published in US7790364B2, “Compositions and methods for high throughput screening of pharmacological chaperones” (The Board of Trustees of the Leland Stanford Junior …, priority 2006, dated 2010).

Assays:
Format in all cases: cell-based
4S-ΔF508 CFTR [1] = target: T1, 4S-ΔF508 CFTR (Homo sapiens, UniProt P13569, DEL508-508/INS895[…]); assay: Western blotting of CFTR expression in cells exposed to compound; settings: FIG. 10
T1 construct: antibodies against the CFTR C-terminus to test for complete open reading frame; 4 x S-tag (KETAAAKFERQHMDS) with GGGG spacers, in the 4th extracellular loop; expressed in transfected cells
T1 sequence (P13569 with tags, fused parts or gaps DEL508-508/INS895[withheld]): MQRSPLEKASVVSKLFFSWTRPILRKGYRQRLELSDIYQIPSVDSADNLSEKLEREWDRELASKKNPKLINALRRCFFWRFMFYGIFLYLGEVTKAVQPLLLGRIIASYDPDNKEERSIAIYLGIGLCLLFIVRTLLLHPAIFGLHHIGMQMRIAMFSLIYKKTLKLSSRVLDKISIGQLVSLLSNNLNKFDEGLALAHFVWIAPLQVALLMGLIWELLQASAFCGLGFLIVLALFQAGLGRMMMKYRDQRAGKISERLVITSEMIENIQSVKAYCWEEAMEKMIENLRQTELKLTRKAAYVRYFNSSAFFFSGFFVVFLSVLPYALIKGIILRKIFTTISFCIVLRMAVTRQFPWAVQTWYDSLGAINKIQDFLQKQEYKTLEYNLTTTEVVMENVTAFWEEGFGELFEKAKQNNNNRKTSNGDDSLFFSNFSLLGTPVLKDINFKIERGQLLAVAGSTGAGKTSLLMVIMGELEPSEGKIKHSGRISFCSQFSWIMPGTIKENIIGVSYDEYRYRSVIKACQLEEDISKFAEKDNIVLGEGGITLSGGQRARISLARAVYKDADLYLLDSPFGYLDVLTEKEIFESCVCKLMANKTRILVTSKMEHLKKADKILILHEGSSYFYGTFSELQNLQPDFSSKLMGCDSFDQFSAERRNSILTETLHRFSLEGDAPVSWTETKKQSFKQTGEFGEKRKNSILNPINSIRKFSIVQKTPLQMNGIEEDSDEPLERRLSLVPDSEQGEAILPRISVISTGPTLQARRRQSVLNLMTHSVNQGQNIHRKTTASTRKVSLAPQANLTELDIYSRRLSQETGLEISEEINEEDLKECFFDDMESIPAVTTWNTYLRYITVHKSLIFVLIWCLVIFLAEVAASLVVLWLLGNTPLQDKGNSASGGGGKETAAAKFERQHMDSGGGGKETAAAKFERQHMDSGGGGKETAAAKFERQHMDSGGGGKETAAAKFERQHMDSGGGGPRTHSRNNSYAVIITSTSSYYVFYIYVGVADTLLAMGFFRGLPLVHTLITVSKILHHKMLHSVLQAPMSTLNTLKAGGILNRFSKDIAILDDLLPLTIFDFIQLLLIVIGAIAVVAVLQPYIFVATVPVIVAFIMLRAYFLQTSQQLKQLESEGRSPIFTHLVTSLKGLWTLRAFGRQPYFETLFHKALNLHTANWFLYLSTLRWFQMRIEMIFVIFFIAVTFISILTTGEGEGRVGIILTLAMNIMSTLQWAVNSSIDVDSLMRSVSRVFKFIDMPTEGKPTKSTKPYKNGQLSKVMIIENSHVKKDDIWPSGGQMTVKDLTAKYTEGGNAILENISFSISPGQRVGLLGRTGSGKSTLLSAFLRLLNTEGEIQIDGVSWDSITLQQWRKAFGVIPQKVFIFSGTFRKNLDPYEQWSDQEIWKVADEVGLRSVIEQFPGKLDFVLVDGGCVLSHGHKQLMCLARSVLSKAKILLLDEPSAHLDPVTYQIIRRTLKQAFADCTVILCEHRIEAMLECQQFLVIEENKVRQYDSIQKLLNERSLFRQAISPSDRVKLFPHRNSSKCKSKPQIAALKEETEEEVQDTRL

4S-ΔF508 CFTR [2] = target: T1, 4S-ΔF508 CFTR; assay: FACS assay measuring S-tag epitopes at the cell surface with a polyclonal antibody; settings: for surface expression of CFTR (FACS): different concentrations, 1 or 2 days, with or without induction of 4S tag delta F508 expression, compared with 28° C. positive control
Excerpt: The library was screened against 4S-ΔF508 CFTR expressing CHO cells using the assay described in Example 2 above. Each of these compounds was retested using an FACS assay to measure S-tag epitopes at the cell surface with a polyclonal antibody, as shown in FIG. 8.

4S-ΔF508 CFTR [3] = target: T1, 4S-ΔF508 CFTR; assay: Immunofluorescence labeling using polyclonal S-tag antibody; settings: varying doses, FIG. 11
4S-ΔF508 CFTR [4] = target: T1, 4S-ΔF508 CFTR; assay: RNAase S complementation screening assay on 4S-ΔF508 CFTR expressing CHO cells; settings: LOPAC1280 library screen
Experimental: Optimize conditions for homogeneous cell-based assay for ΔF508-CFTR rescue. Surface detection of S-protein tagged CFTR used reconstitution of RNAase S activity and detection with the fluorogenic probe 6-F-dArUdAdA-6-TMR.
Screening was carried out on a customized apparatus (SAGIAN, Beckman) containing a 3-m rail Optimized Robot for Chemical Analysis that integrates the following robot-accessible instruments on a 4×2-m optical table: (a) SAGIAN 180 CO2 incubator, which holds 180 standard microplates in a storage carousel; (b) Elx405-Select plate washer with valve option and vacuum-sensing/waste alert for complex automated wash cycles; (c) SAGIAN MPS-8 CS incubator (holds eight standard microplates at 4-37±1° C.); […] SAGIAN shaker (six plate positions, frequency range 40-1100 rpm with variable amplitude); (e) Biomek 2000 liquid handling work station (installed with four positions to hold tip boxes with automatic air locks and six positions for microplates and liquid reservoirs, and MP 20 and MP 200 8-channel tip tools for liquid transfer); (f) SAGIAN carousel (holding 40 pipette tip boxes and 90 microplates); (g) SAGIAN bar code reader; (h) SAGIAN microplate lidding station with automatic vacuum control of six suction cups; (i) two FluoStar fluorescence plate readers (BMG Lab Technologies), each equipped with two-syringe pumps.
Data collection and analysis. […]

SMILES: O=C(/C=C/c1ccc(O)cc1)c1ccc(O)cc1O [Compound 6, 4,2′,4′-trihydroxychalcone]
- expression of the protein assessed by western blotting (4S-ΔF508 CFTR [1]): increased expression
- activity in the rescreening assays (4S-ΔF508 CFTR [2]; FACS, S-tag epitopes at the cell surface): active
- surface expression of CFTR (FACS) (4S-ΔF508 CFTR [2]): significant, dose dependent increase
- surface expression of CFTR (FACS) (4S-ΔF508 CFTR [2]; listed as isoliquiritigenin): significant and dose-dependent upregulation
- expression by immunofluorescence labeling using polyclonal S-tag antibody (4S-ΔF508 CFTR [3]): increased expression
- activity in the assays of the invention (4S-ΔF508 CFTR [4]): active
